Assay results taken from ChEMBL document CHEMBL1909046, “DrugMatrix in vitro pharmacology data”.
pIC50: −log10 of the molar value. *1 amine or outer side, *2 acyl side, *3 side chain or, on linkers, in order; H or OH if unused. Where a SMILES comes first, the peptide text is derived from it. Bridges are numbered along the chain shown (N, C = ends). Roman numbers before positions name the chains, in order. [ ]: non-standard residue; d: D form. Actinocin(1to9) = Cc1c2oc3c(C)ccc(C(=O)[*:2])c3nc-2c(C(=O)[*:1])c(N)c1=O; NMeV = CN[C@H](C(=O)O)C(C)C; Sar = CNCC(=O)O

How the values were obtained:
Nitric oxide synthase 1 = Nitric oxide synthase 1 (Rattus norvegicus, UniProt P29476); type: tissue-based, Cerebellum
Sequence of Nitric oxide synthase 1 (P29476 whole entry): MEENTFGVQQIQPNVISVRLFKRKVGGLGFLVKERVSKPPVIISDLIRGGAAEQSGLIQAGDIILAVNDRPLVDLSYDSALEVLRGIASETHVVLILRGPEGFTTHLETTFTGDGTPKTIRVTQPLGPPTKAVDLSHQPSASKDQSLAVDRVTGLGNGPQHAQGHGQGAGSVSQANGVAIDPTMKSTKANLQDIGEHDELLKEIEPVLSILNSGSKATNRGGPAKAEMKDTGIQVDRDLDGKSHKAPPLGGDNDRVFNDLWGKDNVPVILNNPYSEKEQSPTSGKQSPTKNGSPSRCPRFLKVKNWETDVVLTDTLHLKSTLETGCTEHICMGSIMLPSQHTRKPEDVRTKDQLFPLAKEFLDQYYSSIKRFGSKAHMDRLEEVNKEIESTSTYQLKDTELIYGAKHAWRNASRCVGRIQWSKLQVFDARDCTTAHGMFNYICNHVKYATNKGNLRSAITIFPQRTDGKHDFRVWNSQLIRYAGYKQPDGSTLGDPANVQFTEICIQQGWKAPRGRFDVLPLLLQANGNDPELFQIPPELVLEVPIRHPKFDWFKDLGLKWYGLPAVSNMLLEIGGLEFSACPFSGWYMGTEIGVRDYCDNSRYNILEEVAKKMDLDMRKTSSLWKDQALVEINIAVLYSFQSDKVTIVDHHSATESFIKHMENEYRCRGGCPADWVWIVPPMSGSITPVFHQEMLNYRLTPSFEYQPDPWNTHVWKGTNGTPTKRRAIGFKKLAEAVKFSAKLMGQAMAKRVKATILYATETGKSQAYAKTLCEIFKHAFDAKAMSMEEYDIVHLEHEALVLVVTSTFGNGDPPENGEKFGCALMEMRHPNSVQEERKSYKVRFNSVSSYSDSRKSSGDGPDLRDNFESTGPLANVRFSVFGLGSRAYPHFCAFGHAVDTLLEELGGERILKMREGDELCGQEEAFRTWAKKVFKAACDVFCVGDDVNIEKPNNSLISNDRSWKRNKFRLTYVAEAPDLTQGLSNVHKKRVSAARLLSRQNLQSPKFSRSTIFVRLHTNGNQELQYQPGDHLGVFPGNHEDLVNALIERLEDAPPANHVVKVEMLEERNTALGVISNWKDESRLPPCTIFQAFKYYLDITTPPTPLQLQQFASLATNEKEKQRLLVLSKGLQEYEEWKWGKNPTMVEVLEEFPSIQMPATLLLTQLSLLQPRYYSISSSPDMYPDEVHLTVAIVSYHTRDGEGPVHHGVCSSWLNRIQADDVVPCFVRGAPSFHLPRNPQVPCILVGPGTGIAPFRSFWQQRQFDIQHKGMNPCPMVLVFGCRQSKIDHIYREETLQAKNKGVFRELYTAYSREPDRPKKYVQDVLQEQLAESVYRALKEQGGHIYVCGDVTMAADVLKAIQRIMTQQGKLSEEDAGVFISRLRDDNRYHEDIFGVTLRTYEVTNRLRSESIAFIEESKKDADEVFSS

[1] = target: T1, Receptor-type tyrosine-protein phosphatase C (Homo sapiens, UniProt P08575); design: species or system Escherichia coli;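 note: inhibition of CD45 enzyme activity measured using DiFMUP as substrate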
T1 sequence (P08575 whole entry): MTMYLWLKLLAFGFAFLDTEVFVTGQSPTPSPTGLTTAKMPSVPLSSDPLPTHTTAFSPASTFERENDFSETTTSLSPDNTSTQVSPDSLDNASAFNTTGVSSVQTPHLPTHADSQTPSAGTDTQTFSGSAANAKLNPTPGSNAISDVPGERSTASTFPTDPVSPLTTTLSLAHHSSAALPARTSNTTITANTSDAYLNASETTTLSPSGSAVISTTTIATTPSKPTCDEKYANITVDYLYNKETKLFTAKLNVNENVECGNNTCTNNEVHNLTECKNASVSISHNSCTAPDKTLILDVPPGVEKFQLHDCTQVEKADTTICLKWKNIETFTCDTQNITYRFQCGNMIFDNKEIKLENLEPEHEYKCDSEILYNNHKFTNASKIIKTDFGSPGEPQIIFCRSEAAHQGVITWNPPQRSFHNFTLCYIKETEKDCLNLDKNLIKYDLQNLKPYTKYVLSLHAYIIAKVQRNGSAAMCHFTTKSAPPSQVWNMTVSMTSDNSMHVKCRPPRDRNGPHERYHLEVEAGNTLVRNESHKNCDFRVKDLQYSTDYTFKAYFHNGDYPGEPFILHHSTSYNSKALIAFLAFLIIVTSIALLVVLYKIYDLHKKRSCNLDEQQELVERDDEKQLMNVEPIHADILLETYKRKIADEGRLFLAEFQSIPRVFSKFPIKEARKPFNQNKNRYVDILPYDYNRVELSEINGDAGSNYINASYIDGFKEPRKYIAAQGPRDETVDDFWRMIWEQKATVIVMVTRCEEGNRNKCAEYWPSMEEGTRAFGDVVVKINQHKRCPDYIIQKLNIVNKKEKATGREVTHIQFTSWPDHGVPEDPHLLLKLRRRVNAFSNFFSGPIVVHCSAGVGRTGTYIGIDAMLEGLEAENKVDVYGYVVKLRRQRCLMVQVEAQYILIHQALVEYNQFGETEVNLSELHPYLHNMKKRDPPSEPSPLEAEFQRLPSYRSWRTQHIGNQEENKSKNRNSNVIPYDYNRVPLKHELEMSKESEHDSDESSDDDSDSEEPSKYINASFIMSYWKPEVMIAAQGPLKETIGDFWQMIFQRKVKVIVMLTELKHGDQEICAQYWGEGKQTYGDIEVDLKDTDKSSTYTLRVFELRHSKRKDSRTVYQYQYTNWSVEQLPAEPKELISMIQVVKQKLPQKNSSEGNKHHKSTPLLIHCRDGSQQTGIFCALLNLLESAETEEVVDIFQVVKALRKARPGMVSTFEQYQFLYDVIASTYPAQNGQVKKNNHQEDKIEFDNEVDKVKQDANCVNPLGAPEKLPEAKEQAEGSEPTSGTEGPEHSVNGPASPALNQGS

[2] = target: T2, Polyunsaturated fatty acid lipoxygenase ALOX15 (Oryctolagus cuniculus, UniProt P12530); experiment: biochemical; type: tissue-based, Reticulocytes; details: for IC50: reticulocytes; for pIC50: read-out: IC50;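 for all read-outs here: inhibition of 15-lipoxygenase enzyme activity measured with linoleic acid as the substrate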
T2 sequence (P12530 whole entry): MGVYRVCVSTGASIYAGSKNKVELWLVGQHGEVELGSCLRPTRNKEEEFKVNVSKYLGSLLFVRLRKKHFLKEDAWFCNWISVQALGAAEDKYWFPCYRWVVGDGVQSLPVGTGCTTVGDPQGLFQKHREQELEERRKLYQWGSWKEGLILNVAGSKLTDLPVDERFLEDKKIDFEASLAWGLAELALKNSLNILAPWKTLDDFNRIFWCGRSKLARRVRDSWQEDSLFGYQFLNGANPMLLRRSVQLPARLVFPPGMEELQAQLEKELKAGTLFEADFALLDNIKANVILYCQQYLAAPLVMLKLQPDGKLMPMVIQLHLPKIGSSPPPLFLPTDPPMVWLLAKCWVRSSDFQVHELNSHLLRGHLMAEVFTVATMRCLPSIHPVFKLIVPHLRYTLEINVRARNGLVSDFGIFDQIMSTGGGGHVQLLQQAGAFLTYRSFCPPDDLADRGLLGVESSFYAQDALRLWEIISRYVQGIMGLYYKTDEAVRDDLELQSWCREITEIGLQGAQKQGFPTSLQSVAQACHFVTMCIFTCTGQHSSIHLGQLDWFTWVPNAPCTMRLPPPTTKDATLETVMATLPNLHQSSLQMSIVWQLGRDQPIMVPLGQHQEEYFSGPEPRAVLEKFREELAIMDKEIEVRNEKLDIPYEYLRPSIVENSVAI

Thromboxane-A synthase = target: T3, Thromboxane-A synthase (Homo sapiens, UniProt P24557); experiment: biochemical; type: tissue-based, Platelet; details: for IC50: platelet; for pIC50: read-out: IC50;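 for all read-outs here: enzyme inhibition assay with PGH2 supplied as substrate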
T3 sequence (P24557 whole entry): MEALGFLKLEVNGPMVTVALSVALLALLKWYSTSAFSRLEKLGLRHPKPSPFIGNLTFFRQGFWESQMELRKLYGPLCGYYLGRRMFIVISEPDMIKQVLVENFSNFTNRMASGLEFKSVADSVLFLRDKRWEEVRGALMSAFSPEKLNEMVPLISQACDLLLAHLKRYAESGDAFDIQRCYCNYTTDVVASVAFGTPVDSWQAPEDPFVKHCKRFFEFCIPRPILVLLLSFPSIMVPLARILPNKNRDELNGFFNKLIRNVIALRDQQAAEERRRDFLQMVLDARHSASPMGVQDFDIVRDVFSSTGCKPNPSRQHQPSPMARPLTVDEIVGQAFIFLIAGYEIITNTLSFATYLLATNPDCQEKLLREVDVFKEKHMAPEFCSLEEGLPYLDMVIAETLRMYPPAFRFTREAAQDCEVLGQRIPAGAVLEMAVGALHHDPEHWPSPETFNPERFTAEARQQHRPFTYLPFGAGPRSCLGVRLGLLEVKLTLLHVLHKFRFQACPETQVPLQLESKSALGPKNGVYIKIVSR
Note: in other assays of this panel Not Active means under 50% inhibition at 10 µM.

SMILES	IC50 (Nitric oxide synthase 1)	IC50 [1]	IC50 [2]	IC50 (Thromboxane-A synthase)	pIC50 (Thromboxane-A synthase)	pIC50 [2]
CC(C)(Oc1ccc(Cl)cc1)C(=O)O [CLOFIBRIC ACID]	Not Active	Not Active	Not Active	Not Active	–	–
Clc1cccc(Cl)c1NC1=NCCN1 [CLONIDINE]	Not Active	Not Active	Not Active	Not Active	–	–
Cc1cc(C(C#N)c2ccc(Cl)cc2)c(Cl)cc1NC(=O)c1cc(I)cc(I)c1O (stereo not drawn) [CLOSANTEL]	Not Active	Not Active	Not Active	–	7.19	–
Cc1onc(-c2ccccc2Cl)c1C(=O)N[C@@H]1C(=O)N2[C@@H]1SC(C)(C)[C@@H]2C(=O)O [CLOXACILLIN]	Not Active	Not Active	Not Active	Not Active	–	–
CC1CC(OC(=O)C(O)c2ccccc2)CC(C)(C)C1 (stereo not drawn) [CYCLANDELATE]	Not Active	Not Active	Not Active	Not Active	–	–
Cc1c2oc3c(C)ccc(C(=O)N[C@@H]4C(=O)N[C@H](C(C)C)C(=O)N5CCC[C@H]5C(=O)N(C)CC(=O)N(C)[C@@H](C(C)C)C(=O)O[C@@H]4C)c3nc-2c(C(=O)N[C@@H]2C(=O)N[C@H](C(C)C)C(=O)N3CCC[C@H]3C(=O)N(C)CC(=O)N(C)[C@@H](C(C)C)C(=O)O[C@@H]2C)c(N)c1=O [DACTINOMYCIN] (I: T[dV]P[Sar][NMeV] / II: T[dV]P[Sar][NMeV]; ester I:1-I:C, II:1-II:C; linker I:N-II:N via Actinocin(1to9))	Not Active	Not Active	Not Active	Not Active	–	–
Cc1c(O)c(=O)ccn1C [DEFERIPRONE]	Not Active	Not Active	Not Active	Not Active	–	–
CNCCCN1c2ccccc2CCc2ccccc21 [DESIPRAMINE]	Not Active	Not Active	Not Active	Not Active	–	–
O=c1oc2ccccc2c(O)c1Cc1c(O)c2ccccc2oc1=O [DICUMAROL]	Not Active	Not Active	Not Active	Not Active	–	–
C[C@H]1O[C@@H](O[C@H]2[C@@H](O)C[C@H](O[C@H]3[C@@H](O)C[C@H](O[C@H]4CC[C@@]5(C)[C@H](CC[C@@H]6[C@@H]5C[C@@H](O)[C@]5(C)[C@@H](C7=CC(=O)OC7)CC[C@]65O)C4)O[C@@H]3C)O[C@@H]2C)C[C@H](O)[C@@H]1O [DIGOXIN]	Not Active	Not Active	Not Active	Not Active	–	–
CC(C)[C@@]1(NC(=O)[C@@H]2C[C@@H]3c4cccc5[nH]cc(c45)C[C@H]3N(C)C2)O[C@@]2(O)[C@@H]3CCCN3C(=O)[C@H](Cc3ccccc3)N2C1=O.CS(=O)(=O)O [DIHYDROERGOCRISTINE MESYLATE]	Not Active	Not Active	Not Active	Not Active	–	–
CC(=O)O[C@@]12CO[C@@H]1C[C@H](O)[C@@]1(C)C(=O)[C@H](O)C3=C(C)[C@@H](OC(=O)[C@H](O)[C@@H](NC(=O)OC(C)(C)C)c4ccccc4)C[C@@](O)([C@@H](OC(=O)c4ccccc4)[C@H]21)C3(C)C.O.O.O [DOCETAXEL]	Not Active	Not Active	Not Active	Not Active	–	–
COc1cc2nc(N3CCN(C(=O)C4COc5ccccc5O4)CC3)nc(N)c2cc1OC (stereo not drawn) [DOXAZOSIN]	Not Active	Not Active	Not Active	Not Active	–	–
C[C@H]1c2cccc(O)c2C(=O)C2=C(O)[C@]3(O)C(=O)C(C(N)=O)=C(O)[C@@H](N(C)C)[C@@H]3[C@@H](O)[C@@H]21.O [DOXYCYCLINE]	Not Active	Not Active	Not Active	Not Active	–	–
O=C(CCCN1CC=C(n2c(=O)[nH]c3ccccc32)CC1)c1ccc(F)cc1 [DROPERIDOL]	Not Active	Not Active	Not Active	Not Active	–	–
CC(C)[C@H]1C(=O)N2CCC[C@H]2[C@]2(O)O[C@](NC(=O)[C@@H]3C=C4c5cccc6[nH]cc(c56)C[C@H]4N(C)C3)(C(C)C)C(=O)N12 [ERGOCORNINE]	Not Active	Not Active	Not Active	–	5.70	–
C[C@]12CC[C@@H]3c4ccc(O)cc4CC[C@H]3[C@@H]1CCC2=O [ESTRONE]	Not Active	Not Active	–	Not Active	–	5.18
OC(Cn1cncn1)(Cn1cncn1)c1ccc(F)cc1F [FLUCONAZOLE]	Not Active	Not Active	Not Active	Not Active	–	–
CC(C)C(=O)Nc1ccc([N+](=O)[O-])c(C(F)(F)F)c1 [FLUTAMIDE]	Not Active	Not Active	Not Active	Not Active	–	–
N=C(N)NCCN1CCCCCCC1 [GUANETHIDINE]	Not Active	Not Active	Not Active	Not Active	–	–
CC1(C)O[C@@H]2C[C@H]3[C@@H]4CCC5=CC(=O)CC[C@]5(C)[C@@]4(F)[C@@H](O)C[C@]3(C)[C@]2(C(=O)CCl)O1 [HALCINONIDE]	Not Active	Not Active	Not Active	Not Active	–	–
O=c1[nH]c(=O)n([C@H]2C[C@H](O)[C@@H](CO)O2)cc1I [IDOXURIDINE]	Not Active	Not Active	Not Active	Not Active	–	–
CC1Cc2ccccc2N1NC(=O)c1ccc(Cl)c(S(N)(=O)=O)c1 (stereo not drawn) [INDAPAMIDE]	Not Active	Not Active	–	Not Active	–	5.53
Nc1nc(N)nc(-c2cc(Cl)ccc2Cl)n1.O=C(O)/C=C\C(=O)O [IRSOGLADINE MALEATE]	Not Active	Not Active	Not Active	Not Active	–	–
CCC(C)n1ncn(-c2ccc(N3CCN(c4ccc(OCC5COC(Cn6cncn6)(c6ccc(Cl)cc6Cl)O5)cc4)CC3)cc2)c1=O (stereo not drawn) [ITRACONAZOLE]	Not Active	Not Active	Not Active	Not Active	–	–
CCCCN1CCCC[C@H]1C(=O)Nc1c(C)cccc1C [LEVOBUPIVACAINE]	Not Active	Not Active	Not Active	Not Active	–	–
CCCCc1nc(Cl)c(CO)n1Cc1ccc(-c2ccccc2-c2nnn[nH]2)cc1 [LOSARTAN]	Not Active	Not Active	Not Active	Not Active	–	–
